Results taken from patent US20230181612A1, “AMINOGLYCOSIDE DERIVATIVES AND USES THEREOF IN TREATING GENETIC DISORDERS” (ELOXX PHARMACEUTICALS LTD., priority 2017, published 2023).
“Also recorded” adds a separate entry of the source.

Columns and labels:
human fibroblast cells = details: cited from earlier work
eukaryotic ribosome = assay: Eukaryotic in vitro translation inhibition (TNT T7 Quick Coupled Transcription/Translation System, luciferase); assay type: biochemical; details: for IC50: eukaryotic in vitro translation, 30 °C, 60 minutes
Procedure: The Set1 and Set2 compounds as described in Example 1 hereinabove were further tested for their ability to inhibit eukaryotic translation, as follows.
Eukaryotic in vitro translation inhibition was quantified using a TNT® T7 Quick Coupled
Transcription/Translation System with a luciferase T7 control DNA plasmid (Promega), according to the manufacturer protocol. Translation reactions (25 μL) containing variable concentrations of the tested aminoglycoside were incubated at 30° C. for 60 minutes, cooled on ice for 5 minutes, diluted with the dilution reagent and transferred into 96-well plates. In both prokaryotic and eukaryotic systems the luminescence was measured immediately after the addition of the Luciferase Assay Reagent ([…]; Promega), and the light emission was recorded with a FLx800 Fluorescence Microplate Reader (Biotek). The half-maximal inhibition concentration (IC50) values were obtained from fitting concentration-response curves to the data of at least two independent experiments by using Grafit 5 software.

[1] = Toxicity assay in cochlear explants (organ of Corti); assay type: cell-based; details: CBA/J, mouse, cochlear explants (organ of Corti), outer hair cells, concentration at 50% loss of hair cells; 72 hours incubation; read-out: Ototoxicity (Loss of outer hair cells), LC50^Coch
Procedure: (§1) The ototoxicity potential of Set1 and Set2 compounds was tested with cochlear explants as described, for example, in E. Shulman et al., J. Biol. Chem. 289(4), 2318-2330 (2014). The ototoxicity was measured as the value of AG concentration that is needed for 50% of hair loss from the outer hair cells of the cochlea, as follows.
(§2) The tested compounds were screened for toxicity to auditory hair cells in explants of the organ of Corti from CBA/J mice of postnatal day 2-3. The dissected tissue was placed on a collagen-coated incubation dish as a flat surface preparation in 1 ml of serum-free Basal Medium Eagle (Sigma Aldrich, St. Louis, Mo.) plus serum-free supplement (Invitrogen, Eugene, Oreg.), 1% bovine serum albumin, 2 mM glutamine, 5 mg glucose /ml and 10 units penicillin/ml. The explants were incubated for 5 hours (37° C., 5% CO2) and an additional 1 ml of culture medium was added to submerse the explants. After 48 hours of continued pre-incubation the culture medium was exchanged for new medium containing a specified concentration of the tested compound. Following another 72 hours of incubation, the explants were washed three times with PBS, fixed overnight in 4% (v/v) paraformaldehyde at 4° C., and then permeabilized for 30 minutes with 0.3% (v/v) Triton X-100 in PBS. The specimens were washed three times with PBS for 10 minutes at room temperature and incubated with rhodamine phalloidin (1:100; Life Technologies, Eugene, OR), either for 1 hour at room temperature or overnight at 4° C.
(§3) Following several rinses with PBS, the explants were mounted on microscope slides with Fluoro-Gel (Electron Microscopy Sciences, Hatfield, Pa.) and imaged on a Leica SP5 Confocal TCS Microscope (Leica, Wetzlar, Germany). Hair cells were identified by phalloidin-staining of their stereociliary bundles and circumferential F-actin rings. Their presence or absence was quantified using a 50x oil immersion objective on an epifluorescence Leitz Orthoplan microscope (Leica, Wetzlar, Germany), equipped with a calibrated scale (0.19 mm) superimposed on the field of view. All rows of hair cells were oriented longitudinally within each frame and counted from the apex of the cochlea to its base. Cell counts were entered in a computer program and compared to a normative database (KHRI Cytocochleogram, version 3.0.6, Kresge Hearing Research Institute, University of Michigan, Ann Arbor, Mich., USA) and are reported as percent hair cell loss averaged over the entire length of the explant.

outer hair cells = assay: as above; assay type: cell-based; details: for ototoxicity potential, in words: LC50^Coch in the millimolar range; for morphology of hair cell epithelium: F-actin staining
Procedure: as §1, §2, §3

[2] = test system: R3X nonsense mutation (PCDH15, premature UGA C stop codon); assay: In vitro readthrough, dual luciferase reporter assay, R3X construct; assay type: biochemical
Procedure: (§4) The Set1 and Set2 compounds as described in Example 1 hereinabove were tested for their readthrough activity in vitro by using a dual luciferase reporter assay system, as follows.
(§5) DNA fragments derived from PCDH15, CFTR, and IDUA cDNAs, including the tested nonsense mutation or the corresponding WT codon, and four to six upstream and downstream flanking codons, were created by annealing the following pairs of complementary oligonucleotides:
(§6) Fragments were inserted in frame into the polylinker of the p2Luc plasmid between either BamHI and Sad (p.R3X and p.R245X) or Salland Sad (all the rest) restriction sites. For the in vitro readthrough assays, the obtained plasmids, with addition of the tested aminoglycosides were transcribed and translated using the TNT Reticulocyte Lysate Quick Coupled Transcription/Translation System. Luciferase activity was determined after 90 minutes of incubation at 30° C., using the Dual Luciferase Reporter Assay System (Promega™). Stop codon readthrough was calculated as described in Grentzmann et al. RNA 4, 479-486 (1998).
(§7) Reporters carrying R3X nonsense mutation (a premature UGA C stop codon) related to Usher syndrome and G542X (a premature UGA G stop codon) related to Cystic fibrosis were used, and the obtained data is presented in FIGS. 7A-D.

[3] = test system: G542X nonsense mutation (CFTR, premature UGA G stop codon); assay: In vitro readthrough, dual luciferase reporter assay, G542X construct; assay type: biochemical; details: cystic fibrosis, in words, versus parent compound
Procedure: as §4, §5, §6, §7

[4] = test system: CFTR S466X nonsense mutation; assay: Readthrough activity in cell-free dual luciferase assay, CFTR S466X; assay type: biochemical, rabbit
Source text: (§8) A dual luciferase plasmid carrying the Cystic fibrosis transmembrane conductance regulator (CFTR) mutation, S466X, or wild-type sequence, between Renilla and Firefly luciferase was transcribed and translated in vitro using rabbit reticulocytes (TNT mix) and then tested for functional activity of firefly and renilla luciferases. WT plasmids expressed both firefly and renilla luciferases while mutant plasmids expressed only the renilla luciferase due to the stop codon found in the inserted sequence. The readthrough assays were conducted for the tested compounds and controls by adding the compounds to the in vitro transcription/translation reaction mixture.
Read-through activity induced by NB74-MeS and NB124-MeS was calculated from the dual luciferase assay data using results from both the WT and mutant plasmids and the following equation: […]
(iii) Readthrough efficiency is presented as fold-increase in Firefly luciferase activity between NB74-MeS and NB124-MeS treated and non-treated mutant plasmid.
(iv) % readthrough of WT is calculated as the percentage of FF/Renilla of the mutant plasmid divided by the FF/Renilla of the WT plasmid.

ribosomes = assay: Translational inhibition (TI) in cell-free dual luciferase assay, Renilla of WT plasmid; assay type: biochemical, rabbit
Source text: as §8
(i) Translational Inhibition (TI; The extent of the translational inhibition of ribosomes by NB74-MeS and NB124-MeS was calculated using the reduction in the Renilla bioluminescence values of WT plasmid by nonlinear regression curve fit on a plot of Relative Light Units (RLU) versus the log NB74-MeS and NB124-MeS molar concentration (Find ECanything analysis, GraphPad PRISM, version 7).

## CNC1C(O)C(OC2C(N)CC(N)C(OC3OC(C(C)O)C(O)C(O)C3N)C2O)OCC1(C)O (centres unmarked) [Compound G-418]
Human fibroblast cells
  LD50: 0.04 mg/mL

## C[C@@H](O)C1O[C@H](O[C@@H]2C(N)C[C@@H](N)C(O)[C@H]2O[C@@H]2O[C@H](CN)[C@H](O)C2O)C(N)[C@@H](O)[C@@H]1O (some centres unmarked) [NB74, reference compound]
Eukaryotic ribosome
  IC50: 14.3 µM
[1]
  CC50 at 72 h: 112 µM

## CC(=O)N[C@@H]1CC(N)[C@@H](O[C@H]2OC([C@@H](C)O)[C@@H](O)C(O)C2N)C(O[C@@H]2O[C@H](CN)C(O)C2O)C1O (stereo partly drawn) [NB74-Ac, 6′-(R)-Methyl-5-O-(5″-amino-5″-deoxy-β-D-ribofuranose)-2′,3-amino-1-N-acetamide paromamine]
Eukaryotic ribosome
  IC50: 92.3 ± 9.9 µM
[1]
  CC50 at 72 h: 2400 µM
Outer hair cells
  ototoxicity potential, in words: incredibly low ototoxicity potential
Outer hair cells; concentration at 50% loss of hair cells, 72 hours incubation, read-out: Ototoxicity (Loss of outer hair cells), LC50^Coch
  CC50: 2040 µM
Outer hair cells; from LC50^Coch values
  ototoxicity relative to parent compound: decreased in three orders of magnitude

## C[C@@H](O)C1O[C@H](O[C@@H]2C(N)C[C@@H](NC(=O)c3ccccc3)C(O)C2O[C@@H]2O[C@H](CN)C(O)C2O)C(N)C(O)[C@@H]1O (stereo partly drawn) [NB74-Bz, 6′-(R)-Methyl-5-O-(5″-amino-5″-deoxy-β-D-ribofuranose)-2′,3-amino-1-N-benzamide paromamine]
Eukaryotic ribosome
  IC50: 755 µM
Eukaryotic ribosome; from IC50 values
  folds less specific to the eukaryotic ribosome than NB74: 54 folds

## C[C@@H](O)C1O[C@H](O[C@@H]2C(N)C[C@@H](NS(C)(=O)=O)C(O)C2O[C@@H]2O[C@H](CN)C(O)C2O)C(N)C(O)[C@@H]1O (stereo partly drawn) [NB74-MeS, 6′-(R)-Methyl-5-O-(5″-amino-5″-deoxy-11-D-ribofuranose)-2′,3-amino-1-N-methanesulfonamide paromamine]
[2]
  folds better readthrough activity in comparison to NB74: about 1.5 folds
[3]
  readthrough activity, G542X mutation: better activity
Eukaryotic ribosome
  IC50: 8.35 µM
Eukaryotic ribosome; from IC50 values
  folds more specific to the eukaryotic ribosome than NB74: 1.7 folds
[4]; S466X, relative to MUT control, 0-16 μM range
  Fold Read-through at TI80: 9.9 Fold
[4]; S466X, relative to WT
  % Read-through at TI80: 17%
[4]; cell-free assay, data not shown
  suppression of cystic fibrosis S466X nonsense mutation, in words: dose-response suppression
ribosomes
  TI80: 16 µM
ribosomes; read-out: TI50 (the source's name)
  IC50: > 16 µM
[1]
  CC50 at 72 h: 61.8 µM

## C[C@@H](O)C1O[C@H](O[C@@H]2C(N)C[C@@H](NS(=O)(=O)c3ccccc3)C(O)C2O[C@@H]2O[C@H](CN)C(O)C2O)C(N)C(O)[C@@H]1O (stereo partly drawn) [NB74-PhS, 6′-(R)-Methyl-5-O-(5″-amino-5″-deoxy-II-D-ribofuranose)-2′,3-amino-1-N-phenylsulfonamide paromamine]
Eukaryotic ribosome
  IC50: 160 ± 3.6 µM
[1]
  CC50 at 72 h: 176 µM

## C[C@H](N)[C@H]1O[C@@H](O[C@@H]2C(O)[C@H](N)CC(N)[C@H]2O[C@H]2OC([C@@H](C)O)[C@@H](O)[C@H](O)C2N)C(O)[C@H]1O (some centres unmarked) [NB124, reference compound]
[1]
  CC50 at 72 h: 11.1 µM
Outer hair cells; 15 μM, 72 hours
  morphology of hair cell epithelium: almost complete
Outer hair cells; 15 μM, 72 hours, basal part of the cochlea
  hair cell loss / damage: 80-90%

## CC(=O)N[C@@H]1CC(N)[C@@H](O[C@H]2OC([C@@H](C)O)[C@@H](O)C(O)C2N)C(O[C@@H]2O[C@H]([C@H](C)N)C(O)C2O)C1O (stereo partly drawn) [NB124-Ac, 6′-(R)-Methyl-5-O-(5-(R)-amino-5-deoxy-β-D-ribofuranose)-2′,3-amino-1-N-acetamide paromamine]
[1]
  CC50 at 72 h: 1600 µM
Outer hair cells; 150 μM, 72 hours
  morphology of hair cell epithelium: remained normal and indistinguishable from the control; also recorded: essentially normal morphology
Outer hair cells
  ototoxicity potential, in words: incredibly low ototoxicity potential

## C[C@H](N)[C@H]1O[C@@H](OC2C(O)[C@H](NS(C)(=O)=O)CC(N)[C@H]2O[C@H]2OC([C@@H](C)O)[C@@H](O)C(O)C2N)C(O)C1O (some centres unmarked) [NB124-MeS]
[3]
  readthrough activity, G542X mutation: better activity
